Test results taken from US20240293420A1, “PHARMACEUTICAL COMPOSITION, PREPARATION, AND PREPARATION METHOD THEREFOR AND USE THEREOF” (WUHAN LL SCIENCE AND TECHNOLOGY DEVELOPMENT CO., LTD., priority 2021, published 2024).
Converted amounts (≈) assume the structure as drawn. “Also recorded” adds a separate entry of the source.

Assays:
[1] = Solubility tests in biological media of SGF, FaSSIF and FeSSIF; assay type: physicochemical
Method: The instrument used for liquid chromatography analysis was Agilent HPLC 1260 series, and the analytical method is shown in the table below.
The results of solubility tests of crystal forms I, III, and V in biological media of SGF, FaSSIF, and FeSSF are as shown in Table E and FIG. 43. There was little difference in the solubility of the above three crystal forms in different biological media, and the solubility in SGF was higher than 5 mg/mL.

[2] = Pharmacokinetic experiments in Beagles; assay type: in vivo; settings: Beagle, male, PO, 10 mg/kg, plasma
Method: The present disclosure preferred crystal forms I, III, and V of the compound in the above examples for pharmacokinetic experiments in Beagles, and the relevant experiments are as follows:
Animal: 9 Beagles, male, divided into three groups with 3 in each group, weight ranging from 10 to 13 kg (source & certificate number: Beijing Marshall Biotechnology Co., Ltd., No. 1103182011000161)
Administration mode and dosage: PO: 10 mg/kg
Preparation: 0.5% CMC-Na was used as the solvent, and 400 mg of each of the three different crystal forms of compound A were weighed and added to the corresponding 79 mL of solvent, respectively. The mixture was subjected to ultrasonication for 20 minutes, added with a stirrer, and mixed thoroughly for 3 hours (the storage period from compound preparation to animal administration at room temperature was less than 6 hours). After the drug solution became a homogeneous and fine suspension, which was observed by the naked eye, the solvent was gradually added until the specified volume reached the target concentration. The preparation was stirred for 10 minutes at room temperature before administration, and stirred continuously during administration.
Time points for sampling: the time points for blood sampling in the PO group were 0.167, 0.5, 1, 2, 4, 6, 8, and 24 hours.
Animals in the PO group were fasted overnight except for free access to water before administration, and resumed food supply 4 hours after administration.
After Beagles in the […] were administered, blood was collected from Beagles by jugular vein puncture according to the time points for sampling. About 1.0 mL of blood was collected at each time point and transferred to an anticoagulant EP tube (containing 10 μL of EDTA-K2, 375 mg/mL). The tube was gently inverted three times, stored in an ice box (no more than 30 minutes), and centrifuged at 3200 g for 10 minutes at 4° C. The plasma was transferred to an ultra-low temperature refrigerator and stored until detection.
Sample pretreatment process: 40 μL of sample was taken, and 160 μL of acetonitrile solution containing 0.1% FA and 200 ng/mL of mixed standard solution was added to precipitate the protein. The mixture was vortexed and mixed well, and the sample was centrifuged in a 4° C. centrifuge at 13000 pm for 10 minutes. 100 μL of the supernatant was transferred to another 96 deep well plate, then 100 μL of methanol:water (1:3, v:v) solution containing 0.1% FA was added thereto, and the mixture was shaken and mixed for 10 minutes.
• Ion source: ion electrospray (ESI) • Ionization mode: positive ion mode (Positive) • Detection mode (mode): multiple reaction monitoring (MRM) • Ion spray voltage: 5500 V • Ion spray temperature (turbo ion spray temp): 550° C. • Curtain gas type: nitrogen setting: 35 • Collision cell gas type (CAD gas type): nitrogen setting: medium • Nebulizing gas type (gas 1): nitrogen setting: 55.00 • Auxiliary gas type (gas 2): nitrogen setting: 55.00
• Chromatographic column: poroshell 120 EC-C18 (4.6×50 mm, 2.7 μm) • Mobile phase A: 0.1% formic acid aqueous solution • Mobile phase B: a solution of 0.1% formic acid in methanol • Auto sampler wash solution (rinse port wash solution): 50% methanol • Column temperature: 40° C. • Flow rate: 0.55 mL/min • Auto sampler temperature (sample tray temp): 10° C. • Injection volume: 3 μL • Lift of presser foot (needle stroke): 49 mm • Auto sampler rinse setting (rinse pump setting): rinse port only • Auto sampler rinse mode (rinse mode): before aspiration • Auto sampler rinse volume for needle (rinse volume): 500 μL • Dip time when rinsing the injection needle (rinse dip time): 2 seconds
The data would be analyzed using WinNonlin (version 5.2.1 Pharsight, Mountain View, CA) through a non-compartmental model to obtain PK parameters (selecting Cmax, Tmax, AUClast, T1/2, and other parameters according to different routes of administration).

[3] = Crystal form transformation under humidity / drying (XRPD); assay type: physicochemical; settings: humidity or drying as stated in the value
Text: Crystal form I can be obtained by the preparation method in Example 3. […] (FIG. 29). Combined with the DVS test results (FIG. 30), it can be seen that the mutual transformation between crystal forms I and IV is reversible.
Crystal form IV is a hygroscopic product of crystal form I under high humidity environment, and can be obtained by slurrying crystal form I or crystal form V in a mixed solvent of water/acetone with a water content of 50% to 95%.
Crystal form VI was obtained by slurrying crystal form I or crystal form V at 60° C. in a mixed solvent of water/acetone with a water content of 10% (volume ratio) at 60° C.
Crystal form VIII is a hydrate, but the hydrate is unstable.

[4] = Crystal form (XRPD) in preparation process of coated tablets; assay type: physicochemical; settings: samples at stages of wet granulation and tabletting; listed as API
Text: In order to investigate the impact of the preparation process of the preparation on the crystal form, samples were taken at different stages during the preparation process of the coated tablets according to Example 17.3 and analyzed. The analysis results are shown in Table I. The summarized results of the XRPD patterns of the products at each time point for sampling are shown in FIG. 52.
The investigation results are shown in Table J. The XRPD results of the crystal form of the coated tablet, API, and the blank excipient are shown in FIG. 53.

[5] = Variable humidity XRPD (VH-XRPD) of crystal form III; assay type: physicochemical
Text: The instrument parameters are as follows:
The humidity change program settings are as follows: […]

[6] = Physical and chemical stability of crystal forms at 60° C. (closed) and 40° C./75% RH (open); assay type: physicochemical
Method: The physical and chemical stability of crystal forms I, III, and V at 60° C. (closed) and 40° C./75% RH (open) for 7 days were investigated respectively.
(closed) and 40° C./75% RH (open) for 3 months were investigated.

[7] = Dynamic vapor sorption (DVS) test; assay type: physicochemical

XRPD of remaining solid ([1]; FaSSIF, 0.5 h): Unchanged
pH ([1]; FaSSIF, 0.5 h): 6.4
XRPD of remaining solid ([1]; FaSSIF, 2 h): Unchanged
pH ([1]; FaSSIF, 2 h): 6.4
XRPD of remaining solid ([1]; FaSSIF, 24 h): Unchanged
pH ([1]; FaSSIF, 24 h): 6.4
XRPD of remaining solid ([1]; FeSSIF, 0.5 h): Unchanged
pH ([1]; FeSSIF, 0.5 h): 4.9
Solubility ([1]; FeSSIF, 2 h): 88 µg/mL (≈ 176 µM)
XRPD of remaining solid ([1]; FeSSIF, 2 h): Unchanged
pH ([1]; FeSSIF, 2 h): 4.8
Solubility ([1]; FeSSIF, 24 h): 120 µg/mL (≈ 240 µM)
XRPD of remaining solid ([1]; FeSSIF, 24 h): Unchanged
pH ([1]; FeSSIF, 24 h): 4.9
pH ([1]; SGF, 0.5 h): 1.0
solubility at 0.5 h ([1]; simulated gastric fluid, thermodynamic from solid, SGF, 0.5 h, visual observation): > 5000 µg/mL
AUClast [2]: 14454 ± 3182 ng·h/mL
Cmax [2]: 1159 ± 160 ng/mL
T1/2 [2]: 12.9 ± 1.06 h
Tmax [2]: 2.00 ± 0.00 h
water content at which crystal form III is stable ([5]; from DVS at 40% RH and TGA): above 1.6%
XRPD results ([5]; procedure 6: 0% RH, 720 minutes): Anhydrous crystal form X
XRPD results ([5]; procedure 7: 0% RH, 900 minutes): Anhydrous crystal form X
XRPD results ([5]; procedure 10: 40% RH, 120 minutes): Crystal form III
XRPD results ([5]; procedure 11 (end): 40% RH, 240 minutes): Crystal form III
Purity - 7 days (peak area %) ([6]; 40° C./75% RH (open)): 99.35 peak area %
Purity - 1 month (peak area %) ([6]; 40° C./75% RH): 99.29 peak area %
Purity - 3 months (peak area %) ([6]; 40° C./75% RH): 99.23 peak area %
XRPD - 3 months ([6]; 40° C./75% RH): Crystal form III
Purity - 7 days (peak area %) ([6]; 60° C. (closed)): 99.35 peak area %
Purity - 1 month (peak area %) ([6]; 60° C.): 99.28 peak area %
Purity - 3 months (peak area %) ([6]; 60° C.): 99.25 peak area %
XRPD - 3 months ([6]; 60° C.): Crystal form III
Initial purity (peak area %) [6]: 99.34 peak area %
Initial purity (peak area %) ([6]; listed as crystal form III): 99.33 peak area %
DVS hygroscopicity [7]: slightly hygroscopic
XRPD before and after the DVS test [7]: no significant change in XRPD
DVS (wt %, 80% RH) ([7]; 25° C., 80% RH): 2.7 wt %
DVS (wt %, 90% RH) ([7]; 25° C., 90% RH): 2.8 wt %
adsorbed water content ([7]; range of 10 to 80% RH): about 1.2%
Structure (SMILES): COC(=O)N1CCO[C@@H](Cc2c(-c3c(F)cc(S(N)(=O)=O)cc3F)nc3cc(Cl)ccn23)C1 [Crystal form III, methyl (S)-2-((7-chloro-2-(2,6-difluoro-4-sulfamoylphenyl)imidazo[1,2-a]pyridin-3-yl)methyl)morpholine-4-carboxylate]
crystal form transformation [3]: quickly absorbed moisture under ambient humidity and became crystal form III again
Crystal form in preparation process [4]: remained stable; also recorded: Crystal form III
crystal form at 0% RH ([5]; cycle of 40% RH-0% RH-40% RH at 25° C.): completely dehydrated at 0% RH and transformed into a new crystal form, anhydrous crystal form X
